In US20260125359A1, “HETEROARYL COMPOUNDS AS MULTI-TARGET PROTEIN KINASE INHIBITORS” (FUJIAN HAIXI PHARMACEUTICALS CO., LTD., priority 2023, published 2026):

How the values were obtained:
[1] = biological target: DDR1 (Homo sapiens, UniProt Q08345); assay: DDR1 in vitro kinase activity assay (LanthaScreen Eu-anti-GST antibody / Kinase Tracer 178); type: binding; settings: for inhibition at 0.01 µM: compound 10 nM, read-out: DDR1 inhibition rate, 10 nM; for inhibition at 0.1 µM: compound 100 nM, read-out: DDR1 inhibition rate, 100 nM
Sequence of DDR1 (Q08345 19-913): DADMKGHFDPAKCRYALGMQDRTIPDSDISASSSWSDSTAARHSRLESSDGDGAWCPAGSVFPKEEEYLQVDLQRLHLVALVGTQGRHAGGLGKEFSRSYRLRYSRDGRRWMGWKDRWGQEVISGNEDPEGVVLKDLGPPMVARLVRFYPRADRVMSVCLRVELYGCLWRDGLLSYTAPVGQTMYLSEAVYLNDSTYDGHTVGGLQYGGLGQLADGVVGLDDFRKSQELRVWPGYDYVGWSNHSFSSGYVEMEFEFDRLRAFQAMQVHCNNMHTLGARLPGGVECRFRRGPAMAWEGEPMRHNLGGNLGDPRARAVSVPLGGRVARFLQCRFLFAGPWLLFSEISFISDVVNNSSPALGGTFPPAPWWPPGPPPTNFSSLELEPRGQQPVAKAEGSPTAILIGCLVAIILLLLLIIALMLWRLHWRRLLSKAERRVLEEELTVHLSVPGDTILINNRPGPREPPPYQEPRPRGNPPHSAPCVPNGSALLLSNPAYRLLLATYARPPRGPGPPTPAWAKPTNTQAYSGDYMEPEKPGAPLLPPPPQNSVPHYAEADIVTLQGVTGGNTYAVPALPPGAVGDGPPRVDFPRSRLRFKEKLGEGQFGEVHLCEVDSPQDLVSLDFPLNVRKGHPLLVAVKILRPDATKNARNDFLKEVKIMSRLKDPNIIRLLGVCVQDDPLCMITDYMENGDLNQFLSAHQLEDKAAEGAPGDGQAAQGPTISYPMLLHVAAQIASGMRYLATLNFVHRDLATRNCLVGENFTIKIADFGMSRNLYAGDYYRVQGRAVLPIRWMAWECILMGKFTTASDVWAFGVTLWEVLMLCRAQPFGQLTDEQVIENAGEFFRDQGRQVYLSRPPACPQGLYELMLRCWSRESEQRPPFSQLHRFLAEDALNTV
Experimental: DDR1 in vitro Kinase Activity Assay:
• ENVISION (Perkinelmer, 2104) • White 384-well MicroPlate (Cat #264706, Nunc) • DDR1 (Cat #PV6047, Invitrogen) • 5× Kinase Buffer A (Cat #PV3189, Invitrogen) • Kinase Tracer 178 (Cat #PV5593, Invitrogen) • LanthaScreen® Eu-anti-GST Antibody (Cat #PV5594, Invitrogen)
The compounds to be tested were tested at two concentrations of 100 nM and 10 nM.
Kinase/Antibody Mixtures Preparation: Dilute Kinase/Antibody Mixtures with 1× Kinase Buffer to form 3× working solutions with final concentrations of 5 nM kinase and 2 nM Eu-Anti-GST Antibody, respectively.
Kinase Tracer 178 Preparation: Dilute Kinase Tracer 178 with 1× Kinase Buffer to make a 3× working solution with a final concentration of 10 nM.
After all reagents were prepared according to the methods described above, except for the enzyme, they were equilibrated to room temperature before starting the sample addition. • a) First, 3% DMSO solutions were prepared separately using the pre-prepared 1× kinase buffer (DMSO concentrations that were too high could affect the reaction, so the final concentration of DMSO was controlled at 1%). Then, the corresponding 3% DMSO solution for the enzyme was used to dilute the test compounds. Compounds were screened with two concentrations of 100 nM and 10 nM. Except for the control wells, 5 μL of the diluted test compound solution was added to the reaction wells, and 5 μL of the pre-prepared 3% DMSO solution was added to the control wells. • b) 5 μL of the pre-prepared Kinase/Antibody mixtures was added to all reaction wells except the negative control wells. For the negative control wells, 5 μL of 1× kinase buffer corresponding to the enzyme was added to make up the volume. • c) 5 μL of the pre-prepared Kinase Tracer 178 solution was added to all reaction wells. • d) The plate was sealed and mixed, incubated at room temperature for 1 hour, and the fluorescence signal was detected using the ENVISION (PerkinElmer) instrument (excitation at 340 nm, emission at 665 nm and 615 nm). The inhibition rate for each well was calculated based on the full-activity control wells and background signal wells, and the average value of the replicates was taken.

[2] = biological target: PDGFR-α (Homo sapiens, UniProt P16234); assay: PDGFR-α in vitro kinase activity assay (HTRF kinEASE TK); type: biochemical; settings: for inhibition at 0.01 µM: compound 10 nM, read-out: PDGFRα inhibition rate, 10 nM; for inhibition at 0.1 µM: compound 100 nM, read-out: PDGFRα inhibition rate, 100 nM
Sequence of PDGFR-α (P16234 24-1089): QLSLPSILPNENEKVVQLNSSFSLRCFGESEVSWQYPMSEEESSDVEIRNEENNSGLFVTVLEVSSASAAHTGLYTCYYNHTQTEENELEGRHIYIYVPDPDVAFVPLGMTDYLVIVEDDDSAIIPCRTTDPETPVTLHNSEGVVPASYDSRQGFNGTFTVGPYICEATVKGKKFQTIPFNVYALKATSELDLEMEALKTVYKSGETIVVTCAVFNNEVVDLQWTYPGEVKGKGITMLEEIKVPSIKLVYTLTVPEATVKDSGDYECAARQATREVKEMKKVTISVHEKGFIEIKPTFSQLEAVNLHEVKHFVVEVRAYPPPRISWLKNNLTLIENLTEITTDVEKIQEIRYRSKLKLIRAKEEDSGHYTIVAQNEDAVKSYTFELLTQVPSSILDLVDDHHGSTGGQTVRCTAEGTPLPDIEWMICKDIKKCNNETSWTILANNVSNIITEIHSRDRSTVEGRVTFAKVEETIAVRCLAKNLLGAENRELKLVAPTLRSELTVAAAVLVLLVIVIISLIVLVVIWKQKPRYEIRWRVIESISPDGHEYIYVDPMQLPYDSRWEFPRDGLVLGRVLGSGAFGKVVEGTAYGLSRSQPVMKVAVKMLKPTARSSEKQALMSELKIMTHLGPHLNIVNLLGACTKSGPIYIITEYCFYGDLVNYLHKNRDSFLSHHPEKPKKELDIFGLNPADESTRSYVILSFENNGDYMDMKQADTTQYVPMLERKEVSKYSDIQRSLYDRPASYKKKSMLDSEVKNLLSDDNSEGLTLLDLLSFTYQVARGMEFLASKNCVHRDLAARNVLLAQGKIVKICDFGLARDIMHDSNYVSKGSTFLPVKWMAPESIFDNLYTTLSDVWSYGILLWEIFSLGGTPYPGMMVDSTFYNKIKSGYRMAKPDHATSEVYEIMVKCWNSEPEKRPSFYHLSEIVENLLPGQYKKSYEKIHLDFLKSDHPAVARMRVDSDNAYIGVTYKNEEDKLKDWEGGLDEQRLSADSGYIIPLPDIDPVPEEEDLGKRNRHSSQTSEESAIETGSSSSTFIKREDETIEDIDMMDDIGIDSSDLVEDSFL
Text: (§1) CSF-1R, PDGFR-α, KDR (VEGFR2) and KIT in vitro Kinase Activity Assay:
(§2) • ENVISION (Perkinelmer, 2104) • White 384-well MicroPlate (Cat #264706, Nunc) • HTRF kinEASE TK kit main reagents (Cat #62TKOPEC, Cisbio) • TK-biotin substrate • Streptavidin-XL665 • TK Antibody-Cryptate • 5× Enzymatic buffer (5×KB) • Staphylococcal enterotoxin B (SEB) • HTRF Detection buffer • CSF-1R (Cat #PV3249, Invitrogen) • PDGFR-α (Cat #PV3811, Invitrogen) • KDR (Cat #PV3660, Invitrogen) • KIT (Cat #08-156, Carna) • ATP 10 mM (Cat #PV3227, Invitrogen) • DTT 1 M (Cat #D5545, Sigma) • MgCl2 1 M (Cat #M8266, Sigma) • MnCl2 1 M (Cat #244589, Sigma)
(§3) Dilute Substrate-TK and ATP to 5× of the reaction concentration using 1× Kinase Buffer.
(§4) Prepare the 5× enzyme working solution using 1× Kinase Buffer.
(§5) Prepare the 4×Sa-XL665 working solution using Detection Buffer.
(§6) Dilute TK-Ab-Cryptate 100 times using Detection Buffer to prepare the working solution.
(§7) After all reagents were prepared according to the methods described above, except for the enzyme, they were equilibrated to room temperature before starting the sample addition. • a) First, 2.5% DMSO solutions were prepared separately using the pre-prepared 1× kinase buffer (DMSO concentrations that were too high could affect the reaction, so the final concentration of DMSO was controlled at 1%). Then, the corresponding 2.5% DMSO solution for the enzyme was used to dilute the test compounds. Compounds were screened with two concentrations of 100 nM and 10 nM. Except for the control wells, 4 μL of the diluted test compound solution was added to the reaction wells, and 4 μL of the pre-prepared 2.5% DMSO solution was added to the control wells. • b) 2 μL of the pre-prepared TK-biotin substrate solution at the corresponding concentration for the kinase was added to all reaction wells. • c) 2 μL of the pre-prepared enzyme solution at the corresponding concentration was added to all reaction wells except the negative control wells. For the negative control wells, 2 μL of 1× kinase buffer corresponding to the enzyme was added to make up the volume. The plate was sealed with sealing film, mixed gently, and incubated at room temperature for 10 min to allow the compounds to fully interact with the enzyme. • d) 2 μL of the ATP solution at the corresponding concentration for the enzyme was added to all reaction wells to initiate the kinase reaction. ATP concentrations and reaction times for enzyme screening are shown in Table 26 • e) Five minutes before the end of the kinase reaction, the detection solution was prepared. The detection buffer from the kit was used to prepare detection solutions for Streptavidin-XL665 and TK antibody europium cryptate (1:100) at the appropriate concentrations for the two enzymes. • f) After the kinase reaction was completed, 5 μL of the diluted Streptavidin-XL665 solution was added to all reaction wells. After mixing, the diluted TK antibody europium cryptate detection solution was immediately added. • g) The plate was sealed and mixed, incubated at room temperature for 1 hour, and the fluorescence signal was detected using the ENVISION (PerkinElmer) instrument (excitation at 320 nm, emission at 665 nm and 615 nm). The inhibition rate for each well was calculated based on the full-activity control wells and background signal wells, and the average value of the replicates was taken.

[3] = biological target: KIT (Homo sapiens, UniProt P10721); assay: KIT in vitro kinase activity assay (HTRF kinEASE TK); type: biochemical; settings: for inhibition at 0.01 µM: compound 10 nM, read-out: KIT inhibition rate, 10 nM; for inhibition at 0.1 µM: compound 100 nM, read-out: KIT inhibition rate, 100 nM
Sequence of KIT (P10721 26-976): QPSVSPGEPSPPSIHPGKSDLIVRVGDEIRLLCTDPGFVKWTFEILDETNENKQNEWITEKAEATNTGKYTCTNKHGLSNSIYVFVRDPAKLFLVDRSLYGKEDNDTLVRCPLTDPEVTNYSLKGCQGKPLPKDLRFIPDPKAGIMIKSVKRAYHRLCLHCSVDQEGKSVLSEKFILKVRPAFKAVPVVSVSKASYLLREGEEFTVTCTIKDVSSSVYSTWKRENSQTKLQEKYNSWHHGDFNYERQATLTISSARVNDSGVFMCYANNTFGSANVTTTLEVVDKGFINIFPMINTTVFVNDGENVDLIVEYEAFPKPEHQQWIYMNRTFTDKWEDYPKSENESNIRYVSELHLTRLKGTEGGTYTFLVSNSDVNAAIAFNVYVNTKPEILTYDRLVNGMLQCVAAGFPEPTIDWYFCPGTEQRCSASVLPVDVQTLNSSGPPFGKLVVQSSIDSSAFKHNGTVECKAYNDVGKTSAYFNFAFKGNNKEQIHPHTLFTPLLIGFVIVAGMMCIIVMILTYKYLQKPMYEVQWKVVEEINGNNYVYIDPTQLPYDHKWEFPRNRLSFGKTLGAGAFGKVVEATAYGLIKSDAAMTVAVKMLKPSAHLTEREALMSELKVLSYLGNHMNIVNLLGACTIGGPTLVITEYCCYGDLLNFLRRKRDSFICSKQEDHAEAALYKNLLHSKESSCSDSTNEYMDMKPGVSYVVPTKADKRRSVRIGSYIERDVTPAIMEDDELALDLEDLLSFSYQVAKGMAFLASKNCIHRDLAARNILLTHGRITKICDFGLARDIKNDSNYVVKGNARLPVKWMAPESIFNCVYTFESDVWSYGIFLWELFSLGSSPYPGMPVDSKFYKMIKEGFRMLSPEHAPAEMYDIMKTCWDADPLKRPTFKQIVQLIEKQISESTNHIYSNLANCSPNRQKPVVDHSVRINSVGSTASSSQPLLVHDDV
Text: as §1, §2, §3, §4, §5, §6, §7

## Cn1cc(-c2cnc(N)c(O[C@H]3CCc4c(C(=O)Nc5cccc(C6CC6)c5)cccc43)c2)cn1 [Compound 4, (S)-1-((2-amino-5-(1-methyl-1H-pyrazol-4-yl)pyridin-3-yl)oxy)-N-(3-cyclopropylphenyl)-2,3-dihydro-1H-indene-4-carboxamide]
[1]
  inhibition at 0.01 µM: 88.6%
  inhibition at 0.1 µM: 98.2%
[2]
  inhibition at 0.01 µM: 90.9%
  inhibition at 0.1 µM: 96.8%
[3]
  inhibition at 0.01 µM: 76.8%
  inhibition at 0.1 µM: 99.2%

## Cc1cccc(NC(=O)c2cccc3c2CC[C@@H]3Nc2cncc(-c3cnn(C)c3)c2)c1 [Compound 13, (S)-1-((5-(1-methyl-1H-pyrazol-4-yl)pyridin-3-yl)amino)-N-(m-tolyl)-2,3-dihydro-1H-indene-4-carboxamide]
[1]
  inhibition at 0.01 µM: 90.2%
  inhibition at 0.1 µM: 95.1%
[2]
  inhibition at 0.01 µM: 78.7%
  inhibition at 0.1 µM: 99.1%
[3]
  inhibition at 0.01 µM: 73%
  inhibition at 0.1 µM: 97.5%

## Cn1cc(-c2cncc(N[C@H]3CCc4c(C(=O)Nc5cncc(Cl)c5)cccc43)c2)cn1 [Compound 14aa, (S)—N-(5-chloropyridin-3-yl)-1-((5-(1-methyl-1H-pyrazol-4-yl)pyridin-3-yl)amino)-2,3-dihydro-1H-indene-4-carboxamide]
[1]
  inhibition at 0.01 µM: 93.2%
  inhibition at 0.1 µM: 104%
[2]
  inhibition at 0.01 µM: 72.7%
  inhibition at 0.1 µM: 98.7%
[3]
  inhibition at 0.01 µM: 61.9%
  inhibition at 0.1 µM: 97.3%

## Cn1cc(-c2cncc(N[C@H]3CCc4c(C(=O)Nc5ccc(C(F)(F)F)nc5)cccc43)c2)cn1 [Compound 14ah]
[1]
  inhibition at 0.01 µM: 37.9%
  inhibition at 0.1 µM: 85.6%
[2]
  inhibition at 0.01 µM: 67.6%
  inhibition at 0.1 µM: 99.4%
[3]
  inhibition at 0.01 µM: 11.3%
  inhibition at 0.1 µM: 83.3%

## CN1CCc2ccc(NC(=O)c3cccc4c3CC[C@@H]4Nc3cncc(-c4cnn(C)c4)c3)cc2C1 [Compound 14ap]
[1]
  inhibition at 0.01 µM: 75.8%
  inhibition at 0.1 µM: 100%
[2]
  inhibition at 0.01 µM: 72.8%
  inhibition at 0.1 µM: 98.8%
[3]
  inhibition at 0.01 µM: 30.5%
  inhibition at 0.1 µM: 80.7%

## Cc1cncc(NC(=O)c2cccc3c2CC[C@@H]3Nc2cncc(-c3cnn(C)c3)c2)c1 [Compound 14as]
[1]
  inhibition at 0.01 µM: 94.7%
  inhibition at 0.1 µM: 103%
[2]
  inhibition at 0.01 µM: 91%
  inhibition at 0.1 µM: 101%
[3]
  inhibition at 0.01 µM: 58.7%
  inhibition at 0.1 µM: 94.7%

## CN1CCc2nc(NC(=O)c3cccc4c3CC[C@@H]4Nc3cncc(-c4cnn(C)c4)c3)sc2C1 [Compound 14ba]
[1]
  inhibition at 0.01 µM: 32.4%
  inhibition at 0.1 µM: 61.4%
[2]
  inhibition at 0.01 µM: 75.5%
  inhibition at 0.1 µM: 100%
[3]
  inhibition at 0.01 µM: 60.1%
  inhibition at 0.1 µM: 95%

## Cc1cccc(C(=O)Nc2cccc3c2CC[C@@H]3Oc2cncc(-c3cnn(C)c3)c2)c1 [Compound 15, (S)-3-methyl-N-(1-((5-(1-methyl-1H-pyrazol-4-yl)pyridin-3-yl)oxy)-2,3-dihydro-1H-inden-4-yl)benzamide]
[1]
  inhibition at 0.01 µM: 15.9%
  inhibition at 0.1 µM: 88%
[2]
  inhibition at 0.01 µM: 39.6%
  inhibition at 0.1 µM: 64%
[3]
  inhibition at 0.01 µM: 13.3%
  inhibition at 0.1 µM: 31.6%

## Cn1cc(-c2cncc(O[C@H]3CCc4c(C(=O)Nc5cncc(Cl)c5)cccc43)c2)cn1 [Compound 19a, (S)—N-(5-chloropyridin-3-yl)-1-((5-(1-methyl-1H-pyrazol-4-yl)pyridin-3-yl)oxy)-2,3-dihydro-1H-indene-4-carboxamide]
[1]
  inhibition at 0.01 µM: 69.4%
  inhibition at 0.1 µM: 102%
[2]
  inhibition at 0.01 µM: 40.5%
  inhibition at 0.1 µM: 86.2%
[3]
  inhibition at 0.01 µM: 22.1%
  inhibition at 0.1 µM: 48.6%

## Cn1cc(-c2cncc(O[C@H]3CCc4c(C(=O)Nc5cccc(C6CC6)c5)cccc43)c2)cn1 [Compound 19b]
[1]
  inhibition at 0.01 µM: 84%
  inhibition at 0.1 µM: 105%
[2]
  inhibition at 0.01 µM: 22.9%
  inhibition at 0.1 µM: 97.1%
[3]
  inhibition at 0.01 µM: 11.2%
  inhibition at 0.1 µM: 80.2%

## CN1CCc2nc(NC(=O)c3cccc4c3CC[C@@H]4Oc3cncc(-c4cnn(C)c4)c3)sc2C1 [Compound 19f]
[1]
  inhibition at 0.01 µM: 23.1%
  inhibition at 0.1 µM: 53.5%
[2]
  inhibition at 0.01 µM: 14.5%
  inhibition at 0.1 µM: 67.2%
[3]
  inhibition at 0.01 µM: 12.1%
  inhibition at 0.1 µM: 53.9%

## CN(C)Cc1cncc(NC(=O)c2cccc3c2CC[C@@H]3Oc2cncc(-c3cnn(C)c3)c2)c1 [Compound 19h]
[1]
  inhibition at 0.01 µM: 65.3%
  inhibition at 0.1 µM: 97.1%
[2]
  inhibition at 0.01 µM: 3.8%
  inhibition at 0.1 µM: 68.3%
[3]
  inhibition at 0.01 µM: -3.9%
  inhibition at 0.1 µM: 4.9%

## Cc1cncc(NC(=O)c2cccc3c2CC[C@@H]3Oc2cncc(-c3cnn(C)c3)c2)c1 [Compound 19j]
[1]
  inhibition at 0.01 µM: 86.1%
  inhibition at 0.1 µM: 96.7%
[2]
  inhibition at 0.01 µM: 23.5%
  inhibition at 0.1 µM: 79.7%
[3]
  inhibition at 0.01 µM: 14.5%
  inhibition at 0.1 µM: 62.8%

## Cc1cc(NC(=O)c2cccc3c2CC[C@@H]3Oc2cncc(-c3cnn(C)c3)c2)cc(C)n1 [Compound 19k, (S)—N-(2,6-dimethylpyridin-4-yl)-1-((5-(1-methyl-1H-pyrazol-4-yl)pyridin-3-yl)oxy)-2,3-dihydro-1H-indene-4-carboxamide]
[1]
  inhibition at 0.01 µM: 81.4%
  inhibition at 0.1 µM: 89.9%
[2]
  inhibition at 0.01 µM: 13.9%
  inhibition at 0.1 µM: 74.3%
[3]
  inhibition at 0.01 µM: 21.8%
  inhibition at 0.1 µM: 63.7%

## CN(c1cncc(-c2cnn(C)c2)c1)[C@H]1CCc2c(C(=O)Nc3cncc(Cl)c3)cccc21 [Compound 21, (S)—N-(5-chloropyridin-3-yl)-1-(methyl (5-(1-methyl-1H-pyrazol-4-yl)pyridin-3-yl)amino)-2,3-dihydro-1H-indene-4-carboxamide]
[1]
  inhibition at 0.01 µM: 29.7%
  inhibition at 0.1 µM: 88%
[2]
  inhibition at 0.01 µM: 7.7%
  inhibition at 0.1 µM: 38.7%
[3]
  inhibition at 0.01 µM: 2.4%
  inhibition at 0.1 µM: 15.3%
